Columns and labels:
[1] = test system: TGF-β signalling (PAI-1 promoter-luciferase in HepG2 cells); experiment: Cellular transcriptional assay (PAI-1 promoter luciferase reporter)
Description: The assay was performed in HepG2 cells stably transfected with the PAI-1 promoter (known to be a strong TGF-β responsive promoter) linked to a luciferase (firefly) reporter gene. The compounds were selected on their ability to inhibit luciferase activity in cells exposed to TGF-β. In addition, cells were transfected with a second luciferase (Renilla) gene which was not driven by a TGF-13 responsive promoter and was used as a toxicity control.
96 well microplates were seeded, using a multidrop apparatus, with the stably transfected cell line at a concentration of 35000 cells per well in 200 μl of serum-containing medium. These plates were placed in a cell incubator.
18 to 24 hours later (Day 2), cell-incubation procedure was launched. […] Each well contained only one candidate compound and its effect on the PAI-1 promoter was monitored.
Columns 11 and 12 were employed as controls. […] Column 11 was used to determine the ‘reference TGF-β induced firefly luciferase value’ against which values measured in the test wells (to quantify inhibitory activity) were compared. […]
12 to 18 hours later (day 3), the luciferase quantification procedure was launched. […] Following agitation (15 to 30 mins), luciferase activities of the plates were read in a dual-injector luminometer (BMG lumistar). […]

[2] = target: T1, recombinant GST-ALK5 (residues 198-503) (Homo sapiens, UniProt P36897); experiment: Alk5 fluorescence polarization assay; type: binding; conditions: displacement of rhodamine green-labelled ligand, 10 nM ALK5; read-out: ALK5 receptor modulator activity (IC50)
T1 construct: assays using recombinant GST-ALK5 (residues 198-503)
T1 sequence (P36897 198-503): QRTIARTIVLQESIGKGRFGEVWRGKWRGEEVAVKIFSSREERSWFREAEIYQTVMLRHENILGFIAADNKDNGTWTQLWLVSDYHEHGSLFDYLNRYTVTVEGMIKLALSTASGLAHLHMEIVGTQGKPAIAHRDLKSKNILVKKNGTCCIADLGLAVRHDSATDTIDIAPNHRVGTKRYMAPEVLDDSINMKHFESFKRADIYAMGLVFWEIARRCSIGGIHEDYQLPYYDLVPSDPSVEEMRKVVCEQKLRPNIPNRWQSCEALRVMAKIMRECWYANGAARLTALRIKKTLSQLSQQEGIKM
Description: Assay 2 (Alk5 Fluorescence Polarization Assay)
Kinase inhibitor compounds conjugated to fluorophores, can be used as fluorescent ligands to monitor ATP competitive binding of other compounds to a given kinase. The increase in depolarization of plane polarized light, caused by release of the bound ligand into solution, is measured as a polarization/anisotropy value. This protocol details the use of a rhodamine green-labelled ligand for assays using recombinant GST-ALK5 (residues 198-503).
Assay buffer components: 62.5 mM Hepes pH 7.5 (Sigma H-4034), 1 mM DTT (Sigma D-0632), 12.5 mM MgCl2 (Sigma M-9272), 1.25 mM CHAPS (Sigma C-3023). […]
ALK5 was added to assay buffer containing the above components and 1 nM of the rhodamine green-labelled ligand so that the final ALK5 concentration was 10 nM based on active site titration of the enzyme. […] The plates were read immediately on a LJL Acquest fluorescence reader (Molecular Devices, serial number AQ1048) with excitation, emission, and dichroic filters of 485 nm, 530 nm, and 505 nm, respectively. The fluorescence polarization for each well was calculated by the Acquest reader and then imported into curve fitting software for construction of concentration response curves. The normalized response was determined relative to the high controls (1 μl DMSO in column 12, rows A-D) and the low controls (1 μl of control compound in column 12, rows E-H). […]

SMILES: O=C1C=CCC1 [CPO, Cyclopentenone, reference compound]
- firefly and renilla luciferase activities (toxicity control) ([1]; 500 μM CPO with TGF-β, relative to TGF-β only): around 50%

SMILES: Cc1cccc(-c2[nH]nnc2-c2ccnc(-c3ccc(S(C)(=O)=O)cc3)c2)n1 [Example 1, 2-(4-Methanesulfonylphenyl)-4-(5-(6-methyl)-pyridin-2-yl-3H-[1,2,3]triazol-4-yl)-pyridine]
- IC50 [2]: 26 nM
- IC50 ([1]; Homo sapiens, HepG2, read-out: TGF-β cellular activity): 413 nM

SMILES: Cc1cccc(-c2nn[nH]c2-c2ccnc(-c3ccc(CN4CCOCC4)cc3)c2)n1 [Example 4, 4-(4-{4-[5-(6-methyl-pyridin-2-yl)-3H-[1,2,3]triazol-4-yl]-pyridin-2-yl}-benzyl)-morpholine]
- melting point: 110 °C

Source: patent US20060074244A1, “Pyridinyl substituted (1,2,3,)triazoles as inhibitors of the tgf-beta signalling pathway” (priority 2002, published 2006)
